Measured values taken from patent US6365137B1, “Skin whitening agents” (Collaborative Laboratories, Inc., priority 1999, dated 2002).

Legend:
[1] = test system: mushroom tyrosinase (EC 1.14.18.1); experiment: Tyrosinase inhibition assay (test for whitening activity); type: biochemical
Method: Tyrosinase activity is determined in reaction mixtures containing […], 30 units/ml of mushroom tyrosinase (EC 1.14.18.1), 75 mM sodium phosphate (pH 7.5), and test sample at the indicated concentrations. The reaction is conducted at room temperature and is monitored by measuring the increase in OD405 as melanin pigment is produced.
Tyrosinase activity was determined by measuring the rate of change of optical density at 490 nm as tyrosine was converted into dopachrome. (Tyrosinase catalyzes the conversion of tyrosine into DOPA quinone, which spontaneously converts into dopachrome.) The rate of tyrosinase activity in the presence of various concentrations of test sample was measured at room temperature in a reaction mixture containing 50 mM sodium phosphate (pH 6.75), 275 μM tyrosine and 25U/ml mushroom tyrosinase (wherein U refers to the units of enzyme activity. Readings were made at one minute intervals for ten minutes and the reaction rate was calculated by linear regression. Each concentration was run in triplicate. Inhibition of tyrosinase activity was expressed as a percentage of the activity measured for the untreated control mixture (no test sample). An EC50 (the concentration of test sample that inhibits 50% of tyrosinase activity) was calculated.

Cloudman S91 melanocytes = experiment: Cell-based whitening/tanning assay (melanocyte pigmentation assay); conditions: concentration 30 (30μM in method), 5-day treatment, 10nM MSH
Method: The melanocyte pigmentation assay measures a test sample's ability to inhibit pigmentation. […] After a 5-day treatment period with each condition tested in triplicate wells, the cells were harvested by washing with PBS and adding 5% trichloroacetic acid to each well. After a 15 minute incubation the acid was aspirated and replaced with 200μl/well of 10% dimethyl sulfoxide/1N sodium hydroxide. The plates were sealed and incubated at 65° C. for 30 minutes. 200μl of each digestion mixture was then transferred to a well of a 96-well microtiter plate and optical densities were read at 405 nm.
An EC50 (the concentration of test sample that inhibits 50% of pigmentation) was calculated for each sample.

% inhibition (tyrosinase) ([1]; concentration 1.25 (M)): 26.7%
mod/min mean (tyrosinase reaction rate) ([1]; concentration 1.25 (M)): 7.95 mod/min
% inhibition (tyrosinase) ([1]; concentration 2.5 (M)): 45.5%
mod/min mean (tyrosinase reaction rate) ([1]; concentration 2.5 (M)): 5.92 mod/min
% inhibition (tyrosinase) ([1]; concentration 10.5 (M)): 75.8%
mod/min mean (tyrosinase reaction rate) ([1]; concentration 10.5 (M)): 2.63 mod/min
% inhibition (tyrosinase) ([1]; concentration 20 (M)): 92.2%
mod/min mean (tyrosinase reaction rate) ([1]; concentration 20 (M)): 0.85 mod/min
SMILES: Oc1ccc(O)cc1 [Hydroquinone]
inhibition at 30 µM (Cloudman S91 melanocytes; Melanocyte, 120 h, read-out: % Stimulation (+)/ Inhibition (−) of pigmentation): 36.6%
mean (optical density at 405 nm, pigmentation) (Cloudman S91 melanocytes): 0.801
